Source: PubChem BioAssay AID330 (DTP/NCI, 2004)
Several values for one entry are separate records, joined by “and”; a condition that tells them apart may be missing. Identical values can stand only once. Inconclusive results and toxic doses are left out. Rule for the calls: active = survival T/C of 150% or more; inactive = T/C below 125% in these data.

System: P388 leukemia ip, CD2F1 mice, survival T/C
Assay: NCI In Vivo Anticancer Drug Screen. Data for tumor model P388 Leukemia (intraperitoneal) in CD2F1 (CDF1) mice
Details: endpoint: median survival time, higher = longer survival
In short: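 Mice carrying the transplanted tumor received test compound or vehicle. Survival was recorded in each group, and the value is the treated-group measurement divided by that of the vehicle-treated control group.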

[1] = dose: 12.5 mg/kg/injection, schedule: Q01DX009 (ip), vehicle: saline
[2] = dose: 25.0 mg/kg/injection, schedule: Q01DX009 (ip), vehicle: saline
[3] = dose: 50.0 mg/kg/injection, schedule: Q01DX009 (ip), vehicle: saline
[4] = dose: 100.0 mg/kg/injection, schedule: Q01DX009 (ip), vehicle: saline
[5] = dose: 100.0 mg/kg/injection, schedule: Q01DX009 (ip), vehicle: saline with Tween-80
[6] = dose: 200.0 mg/kg/injection, schedule: Q01DX009 (ip), vehicle: saline with Tween-80
[7] = dose: 50.0 mg/kg/injection, schedule: Q01DX005 (ip), vehicle: saline with Tween-80
[8] = dose: 100.0 mg/kg/injection, schedule: Q01DX005 (ip), vehicle: saline with Tween-80
[9] = dose: 200.0 mg/kg/injection, schedule: Q01DX005 (ip), vehicle: saline with Tween-80
[10] = dose: 60.0 mg/kg/injection, schedule: Q01DX005 (ip), vehicle: Klucel (hydroxypropylcellulose) (HPC)
[11] = dose: 120.0 mg/kg/injection, schedule: Q01DX005 (ip), vehicle: Klucel (hydroxypropylcellulose) (HPC)
[12] = dose: 240.0 mg/kg/injection, schedule: Q01DX005 (ip), vehicle: Klucel (hydroxypropylcellulose) (HPC)
[13] = dose: 50.0 mg/kg/injection, schedule: Q01DX009 (ip), vehicle: saline with Tween-80

Measured: T/C

C[C@@]1(CO)[C@H](O)CC[C@@]2(C)[C@H]1CC[C@H]1C[C@@H]3C[C@@]12CC[C@@]3(O)COC(=O)CN
inactive: dose: 5.0 mg/kg/injection, schedule: Q03HX027 (ip), vehicle: saline + alcohol 113 % of control | dose: 10.0 mg/kg/injection, schedule: Q03HX027 (ip), vehicle: saline + alcohol 118 % of control | [1] 105 % of control and 107 % of control | dose: 15.0 mg/kg/injection, schedule: Q01DX009 (ip), vehicle: saline + alcohol 118 % of control | dose: 25.0 mg/kg/injection, schedule: Q01DX005 (iv), vehicle: saline 105 % of control | [2] 107 % of control and 122 % of control | dose: 30.0 mg/kg/injection, schedule: Q01DX009 (ip), vehicle: saline + alcohol 117 % of control | dose: 40.0 mg/kg/injection, schedule: Q03HX027 (ip), vehicle: saline + alcohol 106 % of control | dose: 50.0 mg/kg/injection, schedule: Q01DX005 (iv), vehicle: saline 99 % of control | [3] 114 % of control | dose: 100.0 mg/kg/injection, schedule: Q01DX005 (iv), vehicle: saline 101 % of control | [4] 122 % of control | dose: 120.0 mg/kg/injection, schedule: Q01DX009 (ip), vehicle: saline + alcohol 95 % of control | dose: 200.0 mg/kg/injection, schedule: Q01DX005 (iv), vehicle: saline 115 % of control

COc1ccc(C(C)(O)C2CC2)cc1 (centres undefined)
inactive: dose: 100.0 mg/kg/injection, schedule: Q01DX001 (ip), vehicle: Klucel (hydroxypropylcellulose) (HPC) 107 % of control | dose: 200.0 mg/kg/injection, schedule: Q01DX001 (ip), vehicle: Klucel (hydroxypropylcellulose) (HPC) 103 % of control | dose: 400.0 mg/kg/injection, schedule: Q01DX001 (ip), vehicle: Klucel (hydroxypropylcellulose) (HPC) 103 % of control

CCC(=O)OC(C)COc1ccc(C(C)(C)C)cc1 (centres undefined)
inactive: [5] 107 % of control | [6] 114 % of control | dose: 400.0 mg/kg/injection, schedule: Q01DX009 (ip), vehicle: saline with Tween-80 117 % of control

Nc1ncnc2nc(/N=N/SCCC(=O)O)[nH]c12
inactive: [7] 108 % of control | [8] 103 % of control | [9] 100 % of control

CC(C)NCC(O)COc1ccc(O)c(O)c1 (centres undefined)
inactive: [2] 100 % of control | [4] 123 % of control

COc1cc([C@@H]2OC[C@@H]3C(c4cc(OC)c5c(c4)OCO5)OC[C@@H]32)cc(OC)c1OC (some centres undefined)
inactive: dose: 5.0 mg/kg/injection, schedule: Q01DX009 (ip), vehicle: saline + Tween-80 + alcohol 102 % of control | dose: 10.0 mg/kg/injection, schedule: Q01DX009 (ip), vehicle: saline + Tween-80 + alcohol 101 % of control | dose: 20.0 mg/kg/injection, schedule: Q01DX009 (ip), vehicle: saline + Tween-80 + alcohol 105 % of control | dose: 40.0 mg/kg/injection, schedule: Q01DX009 (ip), vehicle: saline + Tween-80 + alcohol 105 % of control

CCOc1ccc(/C=N/NC(=O)c2ccccc2NC(=O)c2ccccc2Cl)cc1OC
inactive: dose: 30.0 mg/kg/injection, schedule: Q01DX005 (ip), vehicle: Klucel (hydroxypropylcellulose) (HPC) 101 % of control | [10] 101 % of control and 90 % of control | [11] 101 % of control | [12] 91 % of control

COC1(c2ccccc2)C(c2ccccc2)=CC(c2ccccc2)=[N+]1[O-] (centres undefined)
inactive: dose: 50.0 mg/kg/injection, schedule: Q04DX003 (ip), vehicle: saline 95 % of control | dose: 100.0 mg/kg/injection, schedule: Q04DX003 (ip), vehicle: saline 109 % of control | dose: 200.0 mg/kg/injection, schedule: Q04DX003 (ip), vehicle: saline 95 % of control

COc1ccc(C(=O)c2cccnc2C(=O)O)cc1
inactive: [13] 105 % of control | [5] 107 % of control | [6] 107 % of control

NC(CSCc1ccccc1)P(=O)(O)O (centres undefined)
inactive: [10] 105 % of control | [11] 98 % of control | [12] 91 % of control

c1ccc(CON(CCc2ccccn2)CCc2ccccn2)cc1
inactive: dose: 50.0 mg/kg/injection, schedule: Q01DX005 (ip), vehicle: saline 97 % of control | dose: 100.0 mg/kg/injection, schedule: Q01DX005 (ip), vehicle: saline 98 % of control | dose: 200.0 mg/kg/injection, schedule: Q01DX005 (ip), vehicle: saline 98 % of control

COc1ccc(C(=O)CC[N+](C)(C)C)cc1
inactive: [1] 106 % of control | [2] 101 % of control

Cn1c(=O)c2[nH]cnc2n(C)c1=O (tested in a mixture with another compound)
inactive: [13] 104 % of control | [5] 95 % of control | [6] 104 % of control

CSc1snc2c1c(=O)n(C)c(=O)n2C
inactive: dose: 25.0 mg/kg/injection, schedule: Q04DX002 (ip), vehicle: saline with Tween-80 98 % of control | dose: 50.0 mg/kg/injection, schedule: Q04DX002 (ip), vehicle: saline with Tween-80 101 % of control | dose: 100.0 mg/kg/injection, schedule: Q04DX002 (ip), vehicle: saline with Tween-80 99 % of control

CCC1(c2ccccn2)OCC(CBr)O1 (centres undefined)
inactive: [7] 93 % of control | [8] 100 % of control | [9] 93 % of control

COc1ccc2c(c1)CCC1=C2CCS1(=O)=O
inactive: [7] 99 % of control | [8] 97 % of control | [9] 103 % of control

NNC(=O)c1nc2ccccc2s1
inactive: dose: 37.5 mg/kg/injection, schedule: Q04DX003 (ip), vehicle: saline with Tween-80 100 % of control | dose: 75.0 mg/kg/injection, schedule: Q04DX003 (ip), vehicle: saline with Tween-80 100 % of control | dose: 150.0 mg/kg/injection, schedule: Q04DX003 (ip), vehicle: saline with Tween-80 95 % of control

NC(N)=NS(=O)(=O)c1ccccc1[N+](=O)[O-]
inactive: dose: 7.5 mg/kg/injection, schedule: Q01DX009 (ip), vehicle: saline with Tween-80 106 % of control | dose: 15.0 mg/kg/injection, schedule: Q01DX009 (ip), vehicle: saline with Tween-80 113 % of control | dose: 30.0 mg/kg/injection, schedule: Q01DX009 (ip), vehicle: saline with Tween-80 120 % of control

O=C1NCCNC1c1ccccc1 (centres undefined)
inactive: [2] 102 % of control | [3] 102 % of control | [4] 98 % of control | dose: 200.0 mg/kg/injection, schedule: Q01DX009 (ip), vehicle: saline 100 % of control

O=C(Nc1ccc(F)cc1)N1CCCCC1
inactive: dose: 60.0 mg/kg/injection, schedule: Q01DX005 (ip), vehicle: saline with Tween-80 91 % of control | dose: 120.0 mg/kg/injection, schedule: Q01DX005 (ip), vehicle: saline with Tween-80 99 % of control | dose: 240.0 mg/kg/injection, schedule: Q01DX005 (ip), vehicle: saline with Tween-80 97 % of control

COc1cc(C#N)cc(OC)c1
inactive: dose: 25.0 mg/kg/injection, schedule: Q04DX003 (ip), vehicle: saline with Tween-80 109 % of control | dose: 50.0 mg/kg/injection, schedule: Q04DX003 (ip), vehicle: saline with Tween-80 100 % of control | dose: 100.0 mg/kg/injection, schedule: Q04DX003 (ip), vehicle: saline with Tween-80 100 % of control | dose: 200.0 mg/kg/injection, schedule: Q04DX003 (ip), vehicle: saline with Tween-80 100 % of control

COc1cc(C2c3cc(O)c(OC)cc3CC3C(=O)OCC32)ccc1O (centres undefined)
inactive: dose: 50.0 mg/kg/injection, schedule: Q01DX005 (ip), vehicle: Klucel (hydroxypropylcellulose) (HPC) 95 % of control | dose: 100.0 mg/kg/injection, schedule: Q01DX005 (ip), vehicle: Klucel (hydroxypropylcellulose) (HPC) 95 % of control | dose: 200.0 mg/kg/injection, schedule: Q01DX005 (ip), vehicle: Klucel (hydroxypropylcellulose) (HPC) 90 % of control
